Assay results reported in patent publication US12258317B2, “Isoquinolinone compound for inhibiting ssao/vap-1, and use thereof” (SUNSHINE LAKE PHARMA CO., LTD., priority 2019, dated 2025).
Where a name gives a salt, the structure may show the parent alone.

Legend:
Human recombinant DAO = Human recombinant DAO (Homo sapiens (Human), UniProt P19801); assay: Determination of selective inhibition of DAO (diamine oxidase) (Amplex Red, 1,4-diaminobutane substrate); assay type: biochemical; conditions: 30 min pre-incubation at 37° C.
Description: 2. Determination of Selective Inhibition of DAO (Diamine Oxidase)
Test purpose: The following method is used to determine the selective inhibitory activity of the compound of the present invention on DAO.
• Human recombinant DAO (Recombinant Human ABP-1/DAO) was purchased from R&D, Cat. No. 8298-AO; • Amplex® Red Hydrogen PeroxidePeroxidase Assay Kit was purchased from Invitrogen, Cat. No. A22188; • 1,4-Diaminobutane dihydrochloride was purchased from Aladdin, Cat. No. D106194-25G. Test Method:
The test compound was dissolved in DMSO and diluted 5 times to a total of 6 concentrations. In a 384-well plate, 24 μL of human recombinant DAO (1 μg/mL) was added into each well. 1 μL of test compounds at different concentrations were added to each well containing human recombinant DAO, and the plate was incubated at 37° C. for 30 min. After incubating for 30 min, 25 μL of Amplex® Red Hydrogen Peroxide Peroxidase Assay Kit (containing 100 μM Amplex® Red and 0.2 U/ml HRP) containing 1 M 1,4-butanediamine dihydrochloride was added into the corresponding wells, and the plate was incubated in the dark at 37° C. for 30 min. After 30 min, PHERAstar FSX microplate reader of BMG LABTECH was used to read the fluorescence value (RFU) under excitation at 540 nm and emission at 580 nm. The graph was drawn using Graph Pad Prism 5 software to calculate the IC50 value.

[1] = biological target: human recombinant SSAO/VAP-1 (Homo sapiens (Human), UniProt Q16853); assay: Determination of inhibitory activity of human recombinant SSAO/VAP-1 (Amplex Red, benzylamine substrate); assay type: biochemical; conditions: 30 min pre-incubation at room temperature; read-out: SSAO/VAP-1 (Human Recombinant Protein) IC50
Description: 1. Determination of Inhibitory Activity of Human Recombinant SSAO/VAP-1
Test purpose: The following method is used to determine the inhibitory activity of the compounds in the examples of the present invention on human recombinant SSAO/VAP-1.
• Human recombinant SSAO/VAP-1 (VAP-1, human) was purchased from Sigma, Cat. No. SRP6241; • Amplex® Red Monoamine Oxidase Assay Kit was purchased from Invitrogen, Cat. No. A12214; • 384-well plate was purchased from Corning, Cat. No. 6005174; • Amplex® Red Hydrogen PeroxidePeroxidase Assay Kit was purchased from Invitrogen, Cat. No. A22188.
Benzylamine hydrochloride was purchased from Sigma, Cat. No. B5136-25G; • DMSO (Dimethyl Sulfoxide) was purchased from Sigma, Cat. No. D2650-100ML; Test Method:
The test compound was dissolved in DMSO and diluted 4 times to a total of 10 concentrations. In a 384-well plate, 25 μL of human recombinant SSAO/VAP-1 (1.6 μg/mL) was added into each well. 100 nL of test compounds at different concentrations were added to each well containing human recombinant SSAO/VAP-1, and the plate was incubated at room temperature for 30 min. After incubating for 30 min, 25 μL of Amplex® Red Monoamine Oxidase Assay Kit (a reaction mixture containing 200 μM Amplex Red reagent, 1 U/mL HRP and 1 mM benzylamine hydrochloride) was added into the corresponding wells, and the plate was incubated at room temperature in the dark for 60 min. After 60 min, PerkinElmer's Envision was used to read the fluorescence value (RFU) under excitation at 530-560 nm and emission at 590 nm. The graph was drawn using Graph Pad Prism 5 software to calculate the IC50 value.

Sequence of human recombinant SSAO/VAP-1 (Q16853 whole entry): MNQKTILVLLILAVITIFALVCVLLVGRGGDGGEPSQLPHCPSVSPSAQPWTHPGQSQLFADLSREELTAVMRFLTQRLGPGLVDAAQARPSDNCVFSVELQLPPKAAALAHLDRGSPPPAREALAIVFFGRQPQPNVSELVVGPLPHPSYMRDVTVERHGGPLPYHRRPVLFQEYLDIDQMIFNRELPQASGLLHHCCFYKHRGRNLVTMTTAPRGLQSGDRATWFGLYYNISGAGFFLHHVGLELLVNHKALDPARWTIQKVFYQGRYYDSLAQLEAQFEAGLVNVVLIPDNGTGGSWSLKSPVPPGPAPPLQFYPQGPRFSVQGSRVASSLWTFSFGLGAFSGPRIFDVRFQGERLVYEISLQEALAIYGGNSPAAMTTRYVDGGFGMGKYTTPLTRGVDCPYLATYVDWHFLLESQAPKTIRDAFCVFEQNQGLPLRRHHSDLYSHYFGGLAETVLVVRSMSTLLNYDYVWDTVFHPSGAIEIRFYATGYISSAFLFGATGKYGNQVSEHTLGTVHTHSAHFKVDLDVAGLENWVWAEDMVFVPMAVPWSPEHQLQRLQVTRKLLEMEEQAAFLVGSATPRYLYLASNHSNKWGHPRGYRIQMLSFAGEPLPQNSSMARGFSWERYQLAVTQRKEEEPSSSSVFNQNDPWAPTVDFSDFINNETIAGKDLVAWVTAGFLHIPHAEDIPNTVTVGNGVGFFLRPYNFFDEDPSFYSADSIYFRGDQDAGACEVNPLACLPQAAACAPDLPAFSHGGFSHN
Sequence of Human recombinant DAO (P19801 20-751): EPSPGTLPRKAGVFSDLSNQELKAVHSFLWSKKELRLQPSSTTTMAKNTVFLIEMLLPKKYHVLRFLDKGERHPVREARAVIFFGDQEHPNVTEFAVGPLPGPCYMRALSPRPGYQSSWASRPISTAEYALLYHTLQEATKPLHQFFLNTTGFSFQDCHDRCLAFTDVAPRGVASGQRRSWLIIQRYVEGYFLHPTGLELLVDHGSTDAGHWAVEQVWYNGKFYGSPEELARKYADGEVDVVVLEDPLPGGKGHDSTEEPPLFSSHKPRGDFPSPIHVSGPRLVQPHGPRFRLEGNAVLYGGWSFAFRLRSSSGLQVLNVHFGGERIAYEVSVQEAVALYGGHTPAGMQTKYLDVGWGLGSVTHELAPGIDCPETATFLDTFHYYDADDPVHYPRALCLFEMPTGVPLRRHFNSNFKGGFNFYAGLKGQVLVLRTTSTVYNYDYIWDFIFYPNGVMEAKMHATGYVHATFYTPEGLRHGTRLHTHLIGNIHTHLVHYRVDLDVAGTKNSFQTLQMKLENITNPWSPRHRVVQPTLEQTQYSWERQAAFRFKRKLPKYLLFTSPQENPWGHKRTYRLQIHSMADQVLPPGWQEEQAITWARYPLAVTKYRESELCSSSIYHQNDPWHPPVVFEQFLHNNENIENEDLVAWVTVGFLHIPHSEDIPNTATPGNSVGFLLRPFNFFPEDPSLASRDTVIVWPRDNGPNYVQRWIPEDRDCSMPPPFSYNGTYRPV

**Q.** `CC(C)(C)NC(=O)CN1CCc2cc(OC/C(=C/F)CN)ccc2C1=O` [Example 15, 2-[6-[(E)-2-(aminomethyl)-3-fluoro-allyloxy]-1-oxo-3,4-dihydroisoquinolin-2-yl]-N-tert-butyl-acetamide hydrochloride] was tested. Which IC50 (Human recombinant DAO) did it give?
**A.** > 100 nM

**Q.** Which IC50 (Human recombinant DAO) does the source give for `NC/C(=C\F)COc1ccc2c(c1)CCN(CC(=O)N1CCCC1)C2=O` [Example 20, 6-[(E)-2-(aminomethyl)-3-fluoro-allyloxy]-2-(2-oxo-2-pyrrolidin-1-yl-ethyl)-3,4-dihydroisoquinoline-1-one hydrochloride] here?
**A.** > 100 nM

**Q.** How did the IC50 (Human recombinant DAO) turn out when `NC/C(=C\F)COc1ccc2c(c1)CCN(CC(=O)NC1CC(F)(F)C1)C2=O` [Example 19, 2-[6-[(E)-2-(aminomethyl)-3-fluoro-allyloxy]-1-oxo-3,4-dihydroisoquinolin-2-yl]-N-(3,3-difluorocyclobutyl)-acetamide hydrochloride] was run?
**A.** > 1000 nM

**Q.** And the IC50 [1]?
**A.** 4.01 nM

**Q.** `CNC(=O)CN1CCc2cc(OC/C(=C\F)CN)ccc2C1=O` [Example 4, 2-[6-[(Z)-2-(aminomethyl)-3-fluoro-allyloxy]-1-oxo-3,4-dihydroisoquinolin-2-yl]-N-methyl-acetamide hydrochloride] was tested. Which IC50 [1] did it give?
**A.** 3.7 nM

**Q.** How did the IC50 (Human recombinant DAO) turn out when `CS(=O)(=O)CCN1CCc2cc(OC/C(=C/F)CN)ccc2C1=O` [Example 25, 6-[(E)-2-(aminomethyl)-3-fluoro-allyloxy]-2-(2-methylsulfonylethyl)-3,4-dihydroisoquinoline-1-one hydrochloride] was run?
**A.** > 100 nM

**Q.** And the IC50 [1]?
**A.** 3.38 nM

**Q.** What does the source list for `CS(=O)(=O)CCNC(=O)CN1CCc2cc(OC/C(=C/F)CN)ccc2C1=O` [Example 18, 2-[6-[(E)-2-(aminomethyl)-3-fluoro-allyloxy]-1-oxo-3,4-dihydroisoquinolin-2-yl]-N-(2-methanesulfonylethyl)acetamide hydrochloride]?
**A.** IC50 (Human recombinant DAO): > 1000 nM; IC50 [1]: 8.66 nM

**Q.** With `CC(C)CNC(=O)CN1CCc2cc(OC/C(=C/F)CN)ccc2C1=O` [Example 11, 2-[6-[(E)-2-(aminomethyl)-3-fluoro-allyloxy]-1-oxo-3,4-dihydroisoquinolin-2-yl]-N-isobutyl-acetamide hydrochloride] as the molecule, how does the IC50 (Human recombinant DAO) read?
**A.** > 100 nM

**Q.** Which IC50 (Human recombinant DAO) does the source give for `CCNC(=O)CN1CCc2cc(OC/C(=C/F)CN)ccc2C1=O` [Example 5, 2-[6-[(E)-2-(aminomethyl)-3-fluoro-allyloxy]-1-oxo-3,4-dihydroisoquinolin-2-yl]-N-ethyl-acetamide hydrochloride] here?
**A.** > 100 nM

**Q.** Which IC50 [1] does the source give for `CCNC(=O)CN1CCc2cc(OC/C(=C\F)CN)ccc2C1=O` [Example 6, 2-[6-[(Z)-2-(aminomethyl)-3-fluoro-allyloxy]-1-oxo-3,4-dihydroisoquinolin-2-yl]-N-ethyl-acetamide hydrochloride] here?
**A.** 4.12 nM

**Q.** How did the IC50 (Human recombinant DAO) turn out when `NC/C(=C\F)COc1ccc2c(c1)CCN(CC(=O)NC1CCC1)C2=O` [Example 17, 2-[6-[(E)-2-(aminomethyl)-3-fluoro-allyloxy]-1-oxo-3,4-dihydroisoquinolin-2-yl]-N-cyclobutyl-acetamide hydrochloride] was run?
**A.** > 100 nM

**Q.** For `CCCNC(=O)CN1CCc2cc(OC/C(=C/F)CN)ccc2C1=O` [Example 21, 2-[6-[(E)-2-(aminomethyl)-3-fluoro-allyloxy]-1-oxo-3,4-dihydroisoquinolin-2-yl]-N-propyl-acetamide hydrochloride], which IC50 (Human recombinant DAO) is on record?
**A.** > 1000 nM

**Q.** And the IC50 [1]?
**A.** 11.8 nM

**Q.** For `NC/C(=C\F)COc1ccc2c(c1)CCN(CC(=O)NC1CC1)C2=O` [Example 16, 2-[6-[(E)-2-(aminomethyl)-3-fluoro-allyloxy]-1-oxo-3,4-dihydroisoquinolin-2-yl]-N-cyclopropyl-acetamide hydrochloride], which IC50 (Human recombinant DAO) is on record?
**A.** > 100 nM

**Q.** `CN(C)C(=O)CN1CCc2cc(OC/C(=C\F)CN)ccc2C1=O` [Example 8, 2-[6-[(Z)-2-(aminomethyl)-3-fluoro-allyloxy]-1-oxo-3,4-dihydroisoquinolin-2-yl]-N,N-dimethyl-acetamide hydrochloride] was tested. Which IC50 [1] did it give?
**A.** 1 nM

**Q.** For `NC/C(=C\F)COc1ccc2c(c1)CCN(CC(=O)NCC(F)(F)F)C2=O` [Example 13, 2-[6-[(E)-2-(aminomethyl)-3-fluoro-allyloxy]-1-oxo-3,4-dihydroisoquinolin-2-yl]-N-(2,2,2-trifluoroethyl)acetamide hydrochloride], which IC50 (Human recombinant DAO) is on record?
**A.** > 100 nM

**Q.** With `CCOP(=O)(CCN1CCc2cc(OC/C(=C/F)CN)ccc2C1=O)OCC` [Example 24, 6-[(E)-2-(aminomethyl)-3-fluoro-allyloxy]-2-(2-diethoxyphosphorylethyl)-3,4-dihydroisoquinoline-1-one hydrochloride] as the molecule, how does the IC50 (Human recombinant DAO) read?
**A.** > 100 nM

**Q.** What about the IC50 [1] of the same molecule?
**A.** 3.67 nM

**Q.** `CC(C)NC(=O)CN1CCc2cc(OC/C(=C/F)CN)ccc2C1=O` [Example 9, 2-[6-[(E)-2-(aminomethyl)-3-fluoro-allyloxy]-1-oxo-3,4-dihydroisoquinolin-2-yl]-N-isopropyl-acetamide hydrochloride] was tested. Which IC50 (Human recombinant DAO) did it give?
**A.** > 1000 nM

**Q.** Which IC50 (Human recombinant DAO) does the source give for `CNC(=O)CN1CCc2cc(OC/C(=C/F)CN)ccc2C1=O` [Example 3, 2-[6-[(E)-2-(aminomethyl)-3-fluoro-allyloxy]-1-oxo-3,4-dihydroisoquinolin-2-yl]-N-methyl-acetamide hydrochloride] here?
**A.** > 100 nM

**Q.** With `CN(C)C(=O)CN1CCc2cc(OC/C(=C/F)CN)ccc2C1=O` [Example 7, 2-[6-[(E)-2-(aminomethyl)-3-fluoro-allyloxy]-1-oxo-3,4-dihydroisoquinolin-2-yl]-N, N-dimethyl-acetamide hydrochloride] as the molecule, how does the IC50 (Human recombinant DAO) read?
**A.** > 1000 nM

**Q.** And the IC50 [1]?
**A.** 11.1 nM

**Q.** How did the IC50 (Human recombinant DAO) turn out when `COCCNC(=O)CN1CCc2cc(OC/C(=C/F)CN)ccc2C1=O` [Example 22, 2-[6-[(E)-2-(aminomethyl)-3-fluoro-allyloxy]-1-oxo-3,4-dihydroisoquinolin-2-yl]-N-(2-methoxyethyl)acetamide hydrochloride] was run?
**A.** > 100 nM
